In patent US20240246940A1, “HETEROARYL DERIVATIVE COMPOUND AND USE THEREOF” (VORONOI INC., priority 2021, published 2024):

Key:
Format in all cases: cell-based
Settings in all cases: Homo sapiens
[1] = system: BT-474 cells (HER2 overexpressing cell line); experiment: BT-474 cell proliferation inhibitory activity (CellTiter-Glo, 120 hours)
Description: To evaluate the cell proliferation inhibitory activity of the compound according to the present invention on HER2 and EGFR kinases, the following method was performed using HER2 overexpressing cell lines (SK-BR-3, BT-474, and N-87) and EGFR expressing cell line (HaCaT).
McCOY'S 5A supplemented with 10% FBS was used for SK-BR-3 cells, RPMI-1640 medium supplemented with 20% FBS was used for BT-474 cancer cells, and RPMI-1640 medium supplemented with 10% FBS was used for N-87 cancer cells. DMEM supplemented with 10% FBS was used for HaCaT cells.
For SK-BR-3 cells, 5000 cells were aliquoted into each well of a white clear bottom 96 well plate (Corning) 48 hours before treatment with the compounds of Examples. For BT-474 cells, 5000 cells were aliquoted into each well of a white clear bottom 96 well plate (Corning) 48 hours before treatment with the compounds of Examples. For N-87 cells, 5000 cells were aliquoted into each well of a white clear bottom 96 well plate (Corning) 24 hours before treatment with the compounds of Examples. For HaCaT cells, 3000 cells were aliquoted into each well of a white clear bottom 96 well plate (Corning) 24 hours before treatment with the compounds of Examples. For SK-BR-3 cells and BT-474 cells, the compounds of Examples were diluted in dimethyl sulfoxide (three-fold dilution, a total of 11 concentrations) and injected each in an amount of 1 μl to a final concentration of 0.2 nM to 10 μM. For N-87 cells, the compounds of Examples were diluted in dimethyl sulfoxide (five-fold dilution, a total of 11 concentrations) and injected each in an amount of 0.5 μl to a final concentration of […] to 5 μM. For HaCaT cells, the compounds of Examples were diluted in dimethyl sulfoxide (three-fold dilution, a total of 11 concentrations) and injected each in an amount of 0.5 μl to a final concentration of 0.8 nM to 45 μM. For the measurement of living cells, the cells were stored at room temperature for 10 minutes using CellTiter-Glo cell viability reagent (Promega) after a certain period of time (SK-BR-3: 120 hours, BT-474: 120 hours, N-87: 72 hours, and HaCaT: 72 hours) post treatment with the compounds of Examples, and the luminescence intensity thereof was measured using a reader (SynergyNeo, Biotek). Each test was repeated three times.
The result values were calculated as a cell growth rate (%) compared to those of the control group. A graph was created using the GraphPad Prism version 5.0 program, and GI50 values were calculated.

[2] = system: HaCaT cells (EGFR expressing cell line); experiment: HaCaT cell proliferation inhibitory activity (CellTiter-Glo, 72 hours)
Procedure, shortened: (§1)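 Three independent repeats measured growth inhibition across 11 concentrations. The top final concentration was 10 μM for SK-BR-3 and BT-474, 5 μM for N-87 and 45 μM for HaCaT. Growth relative to control, read by luminescence, yielded GI50.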

[3] = system: SK-BR-3 cells (HER2 overexpressing cell line); experiment: SK-BR-3 cell proliferation inhibitory activity (CellTiter-Glo, 120 hours)
Procedure, shortened: as §1

Row | SMILES | GI50 [1] [nM] | GI50 [3] [nM] | GI50 [2] [nM]
1 | COc1ccc(-c2ccco2)cc1Nc1ncnc2cc(OC)c(OC3CCN(C(=O)C(F)Cl)CC3)cc12 (stereo not drawn) [Example 188, 2-chloro-2-fluoro-1-(4-((4-((5-(furan-2-yl)-2-methoxyphenyl)amino)-7-methoxy-quinazolin-6-yl)oxy)piperidin-1-yl)ethan-1-one] | 150 to 1000 | – | ≤ 150
2 | C=CC(=O)N1CC2(CC(Oc3cc4c(Nc5cc(-c6ccco6)ccc5OC)ncnc4cc3OC)C2)C1 [Example 218, 1-(6-((4-((5-(furan-2-yl)-2-methoxyphenyl)amino)-7-methoxy-quinazolin-6-yl)oxy)-2-azaspiro[3.3]heptan-2-yl)prop-2-en-1-one] | > 1000 | – | 150 to 1000
3 | C=CC(=O)N1CCC(Oc2cc3c(Nc4cc(-c5ccc(F)c(C(F)(F)F)c5F)ccc4OC)ncnc3cc2OC)CC1 [Example 202, 1-(4-((4-((2′,4′-difluoro-4-methoxy-3-(trifluoro-methyl)′-[1,1′-biphenyl]-3-yl)amino)-7-methoxy-quinazolin-6-yl)oxy)piperidin-1-yl)prop-2-en-1-one] | ≤ 150 | – | > 1000
4 | C=CC(=O)N1CCC(Oc2cc3c(Nc4cc(C5=CCOCC5)ccc4OC)ncnc3cc2OC)CC1 [Example 216, 1-(4-((4-((5-(3,6-dihydro-2H-pyran-4-yl)-2-methoxyphenyl)amino)-7-methoxy-quinazolin-6-yl)oxy)piperidin-1-yl)prop-2-en-1-one] | 150 to 1000 | – | 150 to 1000
5 | C=CC(=O)N1CC[C@@H](Oc2cc3c(Nc4cc(-c5ccco5)ccc4OC)ncnc3cc2OC)[C@@H](F)C1 [Example 178, 1-((3S,4R)-3-fluoro-4-((4-((5-(furan-2-yl)-2-methoxyphenyl)amino)-7-methoxy-quinazolin-6-yl)oxy)piperidin-1-yl)prop-2-en-1-one] | ≤ 150 | – | ≤ 150
6 | C=CC(=O)N1CCC(Oc2cc3c(Nc4cc(-c5cccc(Cl)c5F)ccc4OC)ncnc3cc2OC)CC1 [Example 135, 1-(4-((4-((3′-chloro-2′-fluoro-4-methoxy-[1,1′-biphenyl]-3-yl)amino)-7-methoxy-quinazolin-6-yl)oxy)piperidin-1-yl)prop-2-en-1-one] | – | 150 to 1000 | 150 to 1000
7 | C=CC(=O)N1CCC(Oc2cc3c(Nc4cc(-c5ccco5)ccc4OC4CC4)ncnc3cc2OC)CC1 [Example 253, 1-(4-((4-((2-cyclopropoxy-5-(furan-2-yl)phenyl)amino)-7-methoxyquinazolin-6-yl)oxy)piperidin-1-yl)prop-2-en-1-one] | – | ≤ 150 | ≤ 150
8 | C=CC(=O)N1CCC(Oc2cc3c(Nc4cc(-c5cncs5)ccc4OC)ncnc3cc2OC)CC1 [Example 77, 1-(4-((7-methoxy-4-((2-methoxy-5-(thiazol-5-yl)phenyl)amino)quinazolin-6-yl)oxy)piperidin-1-yl)prop-2-en-1-one] | – | 150 to 1000 | 150 to 1000
9 | C=CC(=O)N1CC(Oc2cc3c(Nc4cc(-c5ccc(C#N)cc5)ccc4OC)ncnc3cc2OC)C1 [Example 26, 3′-((6-((1-acryloylazetidin-3-yl)oxy)-7-methoxy-quinazolin-4-yl)amino)-4′-methoxy-[1,1′-biphenyl]-4-carbonitrile] | – | ≤ 150 | ≤ 150
10 | C=CC(=O)N1CC(Oc2cc3c(Nc4cc(-c5coc6ccccc56)ccc4OC)ncnc3cc2OC)C1 [Example 40, 1-(3-((4-((5-(benzofuran-3-yl)-2-methoxyphenyl)amino)-7-methoxy-quinazolin-6-yl)oxy)azetidin-1-yl)prop-2-en-1-one] | – | 150 to 1000 | ≤ 150
11 | C=CC(=O)N1CCC(Oc2cc3c(Nc4cc(-c5ccco5)ccc4OC4CCOCC4)ncnc3cc2OC)CC1 [Example 258, 1-(4-((4-((5-(furan-2-yl)-2-((tetrahydro-2H-pyran-4-yl)oxy)phenyl)amino)-7-methoxyquinazolin-6-yl)oxy)piperidin-1-yl)prop-2-en-1-one] | – | 150 to 1000 | ≤ 150
12 | C=CC(=O)N1CCC(Oc2cc3c(Nc4cc(-c5cccs5)c(C)cc4OC)ncnc3cc2OC)CC1 [Example 95, 1-(4-((7-methoxy-4-((2-methoxy-4-methyl-5-(thiophen-2-yl))amino)quinazolin-6-yl)oxy)piperidin-1-yl)prop-2-en-1-one] | – | 150 to 1000 | ≤ 150

More lines, main results first:

Row | GI50 [1] [nM] | GI50 [3] [nM] | SMILES | GI50 [2] [nM]
13 | 150 to 1000 | – | C=CC(=O)N1CCC(Oc2cc3c(Nc4cc(-c5c(F)c(F)c(F)c(F)c5F)ccc4OC)ncnc3cc2OC)CC1 [Example 198] | > 1000
14 | – | 150 to 1000 | C=CC(=O)N1CCC(Oc2cc3c(Nc4cc(-c5ccco5)ccc4OC)ccnc3cc2OC)CC1 [Example 125, 1-(4-((4-((5-(furan-2-yl)-2-methoxyphenyl)amino)-7-methoxy-quinolin-6-yl)oxy)piperidin-1-yl)prop-2-en-1-one] | 150 to 1000
15 | – | ≤ 150 | C=CC(=O)N1CC(Oc2cc3c(Nc4cc(-c5cccc(F)c5)ccc4OC)ncnc3cc2OC)C1 [Example 8, 1-(3-((4-((3′-fluoro-4-methoxy-[1,1′-biphenyl]-3-yl)amino)-7-methoxy-quinazolin-6-yl)oxy)azetidin-1-yl)prop-2-en-1-one] | ≤ 150
16 | – | 150 to 1000 | C=CC(=O)N1CCC(Oc2cc3c(Nc4cc(-c5cccnc5)ccc4OC)ncnc3cc2OC)C1 (stereo not drawn) [Example 59, 1-(3-((7-methoxy-4-((2-methoxy-5-(pyridin-3-yl)phenyl)amino)quinazolin-6-yl)oxy)pyrrolidin-1-yl)prop-2-en-1-one] | > 1000
17 | – | 150 to 1000 | C=CC(=O)N1CCC(Oc2cc3c(Nc4cc(-c5ccco5)c(C)cc4OC)ncnc3cc2OC)CC1 [Example 96, 1-(4-((4-((5-(furan-2-yl)-2-methoxy-4-methylphenyl)amino)-7-methoxy-quinazolin-6-yl)oxy)piperidin-1-yl)prop-2-en-1-one] | ≤ 150
18 | – | ≤ 150 | C=CC(=O)N1CCC(Oc2cc3c(Nc4cc(-c5coc6ccccc56)ccc4OC)ncnc3cc2OC)CC1 [Example 73, 1-(4-((4-((5-(benzofuran-3-yl)-2-methoxyphenyl)amino)-7-methoxy-quinazolin-6-yl)oxy)piperidin-1-yl)prop-2-en-1-one] | ≤ 150
19 | – | ≤ 150 | C=CC(=O)N1CCC(Oc2cc3c(Nc4cc(-c5cccs5)ccc4OC4CCN(C)C4)ncnc3cc2OC)CC1 (stereo not drawn) [Example 250, 1-(4-((7-methoxy-4-((2-((1-methylpyrrolidin-3-yl)oxy)-5-(thiophen-2-yl)phenyl)amino)quinazolin-6-yl)oxy)piperidin-1-yl)prop-2-en-1-one] | ≤ 150
20 | – | 150 to 1000 | C=CC(=O)N1CCC(Oc2cc3c(Nc4cc(-c5ccco5)ccc4OC(F)(F)F)ncnc3cc2OC)CC1 [Example 116, 1-(4-((4-((5-(furan-2-yl)-2-(trifluoro-methoxy)phenyl)amino)-7-methoxy-quinazolin-6-yl)oxy)piperidin-1-yl)prop-2-en-1-one] | ≤ 150
21 | – | ≤ 150 | C=CC(=O)Nc1cc2c(Nc3cc(-c4ccco4)ccc3OC)ncnc2cc1OC [Example 289, N-(4-((5-(furan-2-yl)-2-methoxyphenyl)amino)-7-methoxyquinazolin-6-yl)acrylamide] | ≤ 150
22 | – | ≤ 150 | C=CC(=O)N1CCC(Oc2cc3c(Nc4cc(-c5ccccc5F)ccc4OC)ncnc3cc2OC)CC1 [Example 136, 1-(4-((4-((2′-fluoro-4-methoxy-[1,1′-biphenyl]-3-yl)amino)-7-methoxy-quinazolin-6-yl)oxy)piperidin-1-yl)prop-2-en-1-one] | ≤ 150
23 | – | > 1000 | C=CC(=O)Nc1cc2c(Nc3cc(-c4ccco4)ccc3OC)c(C#N)cnc2cc1OCC [Example 291, N-(3-cyano-7-ethoxy-4-((5-(furan-2-yl)-2-methoxyphenyl)amino)quinolin-6-yl)acrylamide] | ≤ 150
24 | – | ≤ 150 | C=CC(=O)N1CC(Oc2cc3c(Nc4cc(-c5cccc(F)c5F)ccc4OC)ncnc3cc2OC)C1 [Example 19, 1-(3-((4-((2′,3′-difluoro-4-methoxy-[1,1′-biphenyl]-3-yl)amino)-7-methoxy-quinazolin-6-yl)oxy)azetidin-1-yl) prop-2-en-1-one] | ≤ 150
